Measured values as given in ChEMBL document CHEMBL3044662, “Synthesis and potential antibacterial activity of new rhodanine-3-acetic acid derivatives” (2013).
In brackets after ≈: the same amount, converted by molar mass.

Assays:
Format in all cases: functional
Staphylococcus aureus [1] = assay: Antibacterial activity against quinolene-resistant Staphylococcus aureus CCARM 3505 clinical isolate assessed as growth inhibition after 20 hr by two-fold serial dilution method; conditions: CCARM 3505, 20 h
Staphylococcus aureus [2] = assay: Antibacterial activity against methicillin-resistant Staphylococcus aureus CCARM 3506 clinical isolate assessed as growth inhibition after 20 hr by two-fold serial dilution method; conditions: CCARM 3506, 20 h
Staphylococcus aureus [3] = assay: Antibacterial activity against Staphylococcus aureus subsp. aureus RN4220 assessed as growth inhibition after 20 hr by two-fold serial dilution method; conditions: RN4220, 20 h
Staphylococcus aureus [4] = assay: Antibacterial activity against quinolene-resistant Staphylococcus aureus CCARM 3519 clinical isolate assessed as growth inhibition after 20 hr by two-fold serial dilution method; conditions: CCARM 3519, 20 h
Staphylococcus aureus [5] = assay: Antibacterial activity against Staphylococcus aureus KCTC 503 assessed as growth inhibition after 20 hr by two-fold serial dilution method; conditions: KCTC 503, 20 h
Escherichia coli [6] = assay: Antibacterial activity against Escherichia coli CCARM 1356 assessed as growth inhibition after 20 hr by two-fold serial dilution method; conditions: CCARM 1356, 20 h
Escherichia coli [7] = assay: Antibacterial activity against Escherichia coli CCARM 1924 assessed as growth inhibition after 20 hr by two-fold serial dilution method; conditions: CCARM 1924, 20 h
Staphylococcus aureus [8] = assay: Antibacterial activity against methicillin-resistant Staphylococcus aureus CCARM 3167 clinical isolate assessed as growth inhibition after 20 hr by two-fold serial dilution method; conditions: CCARM 3167, 20 h

MIC (Staphylococcus aureus [3]) [µg/mL] | MIC (Staphylococcus aureus [5]) [µg/mL] | MIC (Escherichia coli [6]) [µg/mL] | MIC (Escherichia coli [7]) [µg/mL] | SMILES | MIC (Staphylococcus aureus [1]) [µg/mL] | MIC (Staphylococcus aureus [2]) [µg/mL] | MIC (Staphylococcus aureus [4]) [µg/mL] | MIC (Staphylococcus aureus [8]) [µg/mL]
> 64 | > 64 | > 64 | > 64 | N#Cc1ccccc1COc1ccc2cc(/C=C3\SC(=S)N(CC(=O)O)C3=O)ccc2c1 |  |  |  | 
> 64 | > 64 | > 64 | > 64 | N#Cc1ccc(COc2ccc3cc(/C=C4\SC(=S)N(CC(=O)O)C4=O)ccc3c2)cc1 |  |  |  | 
> 64 | > 64 | > 64 | > 64 | O=C(O)CN1C(=O)/C(=C/c2ccc3cc(OCc4ccc(Cl)cc4Cl)ccc3c2)SC1=S |  |  |  | 
> 64 | > 64 | > 64 | > 64 | O=C(O)CN1C(=O)/C(=C/c2ccc3cc(OCc4ccc(Cl)c(Cl)c4)ccc3c2)SC1=S |  |  |  | 
> 64 | > 64 | > 64 | > 64 | O=C(O)CN1C(=O)/C(=C/c2ccc3cc(OCc4c(Cl)cccc4Cl)ccc3c2)SC1=S |  |  |  | 
> 64 | > 64 | > 64 | > 64 | O=C(O)CN1C(=O)/C(=C/c2ccc3cc(OCc4cccc(C(F)(F)F)c4)ccc3c2)SC1=S |  |  |  | 
> 64 | > 64 | > 64 | > 64 | O=C(O)CN1C(=O)/C(=C/c2ccc3cc(OCc4ccc(I)cc4)ccc3c2)SC1=S |  |  |  | 
> 64 | > 64 | > 64 | > 64 | O=C(O)CN1C(=O)/C(=C/c2ccc3cc(O)ccc3c2)SC1=S |  |  |  | 
> 64 | > 64 | > 64 | > 64 | Cc1ccc(COc2ccc3cc(/C=C4\SC(=S)N(CC(=O)O)C4=O)ccc3c2)cc1C |  |  |  | 
> 64 | > 64 | > 64 | > 64 | COc1cccc(COc2ccc3cc(/C=C4\SC(=S)N(CC(=O)O)C4=O)ccc3c2)c1 |  |  |  | 
> 64 | > 64 | > 64 | > 64 | O=C(O)CN1C(=O)/C(=C/c2ccc3cc(OCc4cccc(F)c4)ccc3c2)SC1=S |  |  |  | 
> 64 | > 64 | > 64 | > 64 | O=C(O)CN1C(=O)/C(=C/c2ccc3cc(OCc4ccccc4Br)ccc3c2)SC1=S |  |  |  | 
> 64 | > 64 | > 64 | > 64 | O=C(O)CN1C(=O)/C(=C/c2ccc3cc(OCc4ccccc4Cl)ccc3c2)SC1=S |  |  |  | 
> 64 | > 64 | > 64 | > 64 | O=C(O)CN1C(=O)/C(=C/c2ccc3cc(OCc4cccc(Cl)c4)ccc3c2)SC1=S |  |  |  | 
> 64 | > 64 | > 64 | > 64 | O=C(O)CN1C(=O)CSC1=S [RHODANINE-3-ACETIC ACID] |  |  |  | 

Continued, compound first:

SMILES | MIC (Staphylococcus aureus [3]) [µg/mL] | MIC (Staphylococcus aureus [5]) [µg/mL] | MIC (Escherichia coli [6]) [µg/mL] | MIC (Escherichia coli [7]) [µg/mL] | MIC (Staphylococcus aureus [1]) [µg/mL] | MIC (Staphylococcus aureus [2]) [µg/mL] | MIC (Staphylococcus aureus [4]) [µg/mL] | MIC (Staphylococcus aureus [8]) [µg/mL]
O=C(O)CN1C(=O)/C(=C/c2ccc3cc(OCc4ccc(Cl)cc4)ccc3c2)SC1=S | 2 (≈ 4.26 µM) | 4 (≈ 8.51 µM) | > 64 | > 64 | 4 (≈ 8.51 µM) | 2 (≈ 4.26 µM) | 4 (≈ 8.51 µM) | 2 (≈ 4.26 µM)
O=C(O)CN1C(=O)/C(=C/c2ccc3cc(OCc4ccc(C(F)(F)F)cc4)ccc3c2)SC1=S | 4 (≈ 7.94 µM) | 4 (≈ 7.94 µM) | > 64 | > 64 | 64 (≈ 127 µM) | 2 (≈ 3.97 µM) | 64 (≈ 127 µM) | 2 (≈ 3.97 µM)
O=C(O)CN1C(=O)/C(=C/c2ccc3cc(OCc4ccc([N+](=O)[O-])cc4)ccc3c2)SC1=S | 64 (≈ 133 µM) | 32 (≈ 66.6 µM) | > 64 | > 64 | 8 (≈ 16.6 µM) | 8 (≈ 16.6 µM) | 4 (≈ 8.32 µM) | 4 (≈ 8.32 µM)
CN(C)c1ccc(COc2ccc3cc(/C=C4\SC(=S)N(CC(=O)O)C4=O)ccc3c2)cc1 | 64 (≈ 134 µM) | 64 (≈ 134 µM) | > 64 | > 64 | > 64 | > 64 | > 64 | > 64
O=C(O)CN1C(=O)/C(=C/c2ccc3cc(OCc4ccccc4)ccc3c2)SC1=S | 64 (≈ 147 µM) | 64 (≈ 147 µM) | > 64 | > 64 | 64 (≈ 147 µM) | 64 (≈ 147 µM) | 64 (≈ 147 µM) | 64 (≈ 147 µM)
Cc1ccc(COc2ccc3cc(/C=C4\SC(=S)N(CC(=O)O)C4=O)ccc3c2)cc1 | 2 (≈ 4.45 µM) | 4 (≈ 8.9 µM) | > 64 | > 64 | 4 (≈ 8.9 µM) | 4 (≈ 8.9 µM) | 8 (≈ 17.8 µM) | 2 (≈ 4.45 µM)
COc1ccc(COc2ccc3cc(/C=C4\SC(=S)N(CC(=O)O)C4=O)ccc3c2)cc1 | 4 (≈ 8.59 µM) | 8 (≈ 17.2 µM) | > 64 | > 64 |  | 2 (≈ 4.3 µM) | 8 (≈ 17.2 µM) | 2 (≈ 4.3 µM)
COc1ccc(COc2ccc3cc(/C=C4\SC(=S)N(CC(=O)O)C4=O)ccc3c2)cc1OC | 4 (≈ 8.07 µM) | 8 (≈ 16.1 µM) | > 64 | > 64 | 8 (≈ 16.1 µM) | 8 (≈ 16.1 µM) | 8 (≈ 16.1 µM) | 8 (≈ 16.1 µM)
O=C(O)CN1C(=O)/C(=C/c2ccc3cc(OCc4ccc(F)cc4)ccc3c2)SC1=S | 4 (≈ 8.82 µM) | 4 (≈ 8.82 µM) | > 64 | > 64 | 4 (≈ 8.82 µM) | 2 (≈ 4.41 µM) | 4 (≈ 8.82 µM) | 4 (≈ 8.82 µM)
O=C(O)CN1C(=O)/C(=C/c2ccc3cc(OCc4cccc(Br)c4)ccc3c2)SC1=S | 32 (≈ 62.2 µM) | 64 (≈ 124 µM) | > 64 | > 64 | > 64 | 64 (≈ 124 µM) | > 64 | 64 (≈ 124 µM)
O=C(O)CN1C(=O)/C(=C/c2ccc3cc(OCc4ccc(Br)cc4)ccc3c2)SC1=S | 2 (≈ 3.89 µM) | 2 (≈ 3.89 µM) | > 64 | > 64 | 4 (≈ 7.78 µM) | 1 (≈ 1.94 µM) | 4 (≈ 7.78 µM) | 1 (≈ 1.94 µM)
CCn1cc(C(=O)O)c(=O)c2cc(F)c(N3CCNCC3)cc21 [NORFLOXACIN] | 2 (≈ 6.26 µM) | 2 (≈ 6.26 µM) | 16 (≈ 50.1 µM) | 16 (≈ 50.1 µM) | > 64 | 4 (≈ 12.5 µM) | > 64 | 8 (≈ 25.1 µM)
Cc1onc(-c2ccccc2)c1C(=O)N[C@@H]1C(=O)N2[C@@H]1SC(C)(C)[C@@H]2C(=O)O [OXACILLIN] | 1 (≈ 2.49 µM) | 1 (≈ 2.49 µM) | > 64 | > 64 | 1 (≈ 2.49 µM) | > 64 | 1 (≈ 2.49 µM) | > 64
